Test results taken from the NIST ThermoML archive (doi:10.1016/j.jct.2014.06.012).
± gives the expanded uncertainty stated by the source.

Assay: Molar enthalpy of transition or fusion
Conditions: Adiabatic calorimetry

Molar enthalpy of transition or fusion (Crystal 2): 0.038 ± 0.000669 kcal/mol | Molar enthalpy of transition or fusion (Crystal 3): 0.00306 ± 9.56e-05 kcal/mol
Compound: O=P([O-])([O-])[O-].[Cs+].[Mn+2] [cesium manganese(II) phosphate]
